By pIC50 is commonly meant the negative decadic logarithm of the IC50, by convention in mol/L. The inhibition is the change of the read-out against control, counted positive when it falls.

These results are taken from patent publication US7579356B2, “Thia-tetraazaacenaphthylene kinase inhibitors” (Janssen Pharmaceutica NV, priority 2005, dated 2009).

What all share (format): biochemical
One experiment addresses T1, EGFR (Homo sapiens, UniProt P00533).
T1 construct: The intracellular portion of EGFR started at nucleotide 2189 (corresponding to amino acid 667) and ended at the termination codon; made in house; host or cells: Sf9 insect cells (baculovirus)
Briefly: EGFR Kinase Assay. The conditions noted are these: for pIC50: GST-EGFR, ATP 5 μM; for inhibition at 2 µM: test concentration of 2 μM, compounds without an IC50, read-out: EGFR inhibition in percent. Summed up:
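GST-fused human EGFR intracellular domain (from aa 667), Sf9-expressed, phosphorylated biotinylated polyGluTyr with 5 μM ATP plus γ-33P ATP in Tris pH 8.0, MgCl2, vanadate, 1 mM DTT, 1 h at 30 °C. Streptavidin Flashplate scintillation read; triplicate 16-point half-log series from 200 uM; IC50 from % inhibition vs log concentration, else % inhibition at 2 μM.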

A further experiment has as its target T2, c-Src kinase (human) (Homo sapiens, UniProt P12931).
T2 construct: purchased Upstate Biotechnology, Lake Placid, N.Y
Briefly: c-Src Kinase Assay. The conditions noted are these: test concentration of 2 μM; multiple values are separate assay results. The procedure: A mixture of a 10× kinase buffer (80 mM MOPS at pH 7.0, 2 mM EDTA and 100 mM Magnesium Chloride), ATP (5 μM final from a 10 mM stock), a Cdc2 peptide KVEKIGEGTYGVVYK (100 μM final from a 2.5 mM stock), γ-^33P ATP (10 μCl/μL stock) and water (for a total of 20 μL/well) was added to each well of a Streptavidin Flashplate.
Test compound in 100% DMSO (0.5 μL) was added to the appropriate wells. Diluted c-Src kinase (human) (Accession Number SWISS-PROT P12931) (Upstate Biotechnology, Lake Placid, N.Y.) (diluted in a buffer consisting of 20 mM MOPS at pH 7.0, 1 mM EDTA, β-mercaptoethanol (0.1%), Brij-35 (0.01%), glycerol (5%), and 1 mg/mL bovine serum albumin) (2.5 μL) was added to the wells to initiate the reactions. The reaction plates were incubated at 30° C. for 40 min. The reaction was terminated by the addition of a 3% phosphoric acid solution (5 μL). The reaction product (10 μL) was spotted onto a P30 filtermat and washed for 5 minutes in phosphoric acid (75 mM). The wash sequence was repeated two more times, followed with one final wash in methanol. The plates were then dried, sealed and read on the TopCount scintillation counter after adding 30 μL scintillation fluid.
The c-Src inhibition values were derived using the percent inhibition formula provided in Example 164 and are shown as percent in Table 2 at a test concentration of 2 μM. For those compounds with an IC50, the IC50 value in μM is shown in parentheses. For compounds with multiple test values, each value represents a separate assay result.

A further experiment concerns the target T3, HER-2 (Homo sapiens, UniProt P04626).
T3 construct: His6 with thrombin site (N); purchased Proqinase (Freiburg, Germany)
As to the kind of experiment: HER-2 Kinase Assay. The settings on record: for pIC50: value in parentheses; for inhibition at 1 µM: test concentration of 1 μM. A digest of the protocol: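 GST/HIS6-tagged HER-2 aa 679–1255 kinase with biotinylated polyGluTyr (1.5 ng/μL), 1 μM ATP plus γ-33P-ATP, Mg2+/Mn2+, DTT, Hepes pH 7.5; 1 h at 30 °C. Substrate phosphorylation captured on streptavidin scintillation plates after EDTA/PBS washes; values are % inhibition at 1 μM or IC50.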

pIC50: −log10 of the molar value. Where only a bound is given, the exact number is not on record here.

T2 sequence (P12931 whole entry): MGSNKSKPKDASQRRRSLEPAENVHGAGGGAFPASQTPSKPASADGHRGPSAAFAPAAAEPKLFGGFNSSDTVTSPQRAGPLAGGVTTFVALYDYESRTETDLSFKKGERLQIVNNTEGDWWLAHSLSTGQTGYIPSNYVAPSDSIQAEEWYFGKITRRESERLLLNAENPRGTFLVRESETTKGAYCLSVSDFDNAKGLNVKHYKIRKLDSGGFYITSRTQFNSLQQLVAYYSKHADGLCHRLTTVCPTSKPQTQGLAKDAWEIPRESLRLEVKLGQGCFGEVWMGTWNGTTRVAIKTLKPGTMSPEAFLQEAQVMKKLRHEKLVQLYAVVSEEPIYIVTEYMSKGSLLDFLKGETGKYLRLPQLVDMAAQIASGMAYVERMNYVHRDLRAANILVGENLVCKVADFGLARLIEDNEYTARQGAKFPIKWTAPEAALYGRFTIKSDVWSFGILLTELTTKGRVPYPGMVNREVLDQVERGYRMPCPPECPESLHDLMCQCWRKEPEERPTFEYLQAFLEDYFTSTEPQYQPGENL
T1 sequence (P00533 669-1210 limits assumed): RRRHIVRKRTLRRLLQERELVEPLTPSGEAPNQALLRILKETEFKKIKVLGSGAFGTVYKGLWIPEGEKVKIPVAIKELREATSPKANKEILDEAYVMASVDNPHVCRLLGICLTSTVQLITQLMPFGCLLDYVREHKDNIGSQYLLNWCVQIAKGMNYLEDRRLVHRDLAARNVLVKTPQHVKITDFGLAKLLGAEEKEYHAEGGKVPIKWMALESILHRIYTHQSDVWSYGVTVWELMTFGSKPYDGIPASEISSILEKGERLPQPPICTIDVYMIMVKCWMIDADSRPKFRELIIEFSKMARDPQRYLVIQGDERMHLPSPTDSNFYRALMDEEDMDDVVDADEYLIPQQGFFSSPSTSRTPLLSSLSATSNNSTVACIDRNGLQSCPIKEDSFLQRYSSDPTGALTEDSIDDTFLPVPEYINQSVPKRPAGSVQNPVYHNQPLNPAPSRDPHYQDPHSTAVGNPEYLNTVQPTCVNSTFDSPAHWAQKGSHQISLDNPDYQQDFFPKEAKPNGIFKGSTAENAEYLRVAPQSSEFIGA
T3 sequence (P04626 679-1255): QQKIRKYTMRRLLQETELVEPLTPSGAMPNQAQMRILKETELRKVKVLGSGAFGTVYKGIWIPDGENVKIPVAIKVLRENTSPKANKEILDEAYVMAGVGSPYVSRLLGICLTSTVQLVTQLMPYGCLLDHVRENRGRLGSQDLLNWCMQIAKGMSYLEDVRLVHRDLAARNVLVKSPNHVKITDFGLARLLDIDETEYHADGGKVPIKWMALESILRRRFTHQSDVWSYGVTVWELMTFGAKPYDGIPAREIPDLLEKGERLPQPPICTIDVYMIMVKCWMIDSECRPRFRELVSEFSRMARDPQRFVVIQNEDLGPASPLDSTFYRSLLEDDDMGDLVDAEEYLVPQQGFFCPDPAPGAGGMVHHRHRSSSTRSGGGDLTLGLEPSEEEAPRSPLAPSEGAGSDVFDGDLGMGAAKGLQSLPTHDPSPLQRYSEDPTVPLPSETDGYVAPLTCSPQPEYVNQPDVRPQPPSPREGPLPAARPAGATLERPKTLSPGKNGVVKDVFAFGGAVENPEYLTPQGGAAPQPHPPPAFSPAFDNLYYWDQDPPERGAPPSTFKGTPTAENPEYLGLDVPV

On to `CN1CCN(Cc2ccc(NC(=O)c3sc4ncnc5c4c3NC(=O)N5c3ccc(Br)cc3F)cc2)CC1` [Cpd 70, 5-(4-bromo-2-fluoro-phenyl)-4-oxo-4,5-dihydro-3H-1-thia-3,5,6,8-tetraaza-acenaphthylene-2-carboxylic acid [4-(4-methyl-piperazin-1-ylmethyl)-phenyl]-amide], for which the pIC50 was 6.48 against EGFR and 5.99 on HER-2. For the same molecule, on c-Src kinase (human), the inhibition at 2 µM stood at 43%.

In the case of `O=C(Nc1ccc(NCCCN2CCOCC2)nc1)c1sc2ncnc3c2c1NC(=O)N3c1ccc(Br)cc1F` [Cpd 71, 5-(4-bromo-2-fluoro-phenyl)-4-oxo-4,5-dihydro-3H-1-thia-3,5,6,8-tetraaza-acenaphthylene-2-carboxylic acid [6-(3-morpholin-4-yl-propylamino)-pyridin-3-yl]-amide], the pIC50 at EGFR is 6.07; on HER-2, 5.75. Further, at c-Src kinase (human), the inhibition at 2 µM was determined as 44%.

Take `COc1ccc(NC(=O)c2sc3ncnc4c3c2NC(=O)N4c2cc(Cl)ccc2OC)cc1OC` [Cpd 73, 5-(5-chloro-2-methoxy-phenyl)-4-oxo-4,5-dihydro-3H-1-thia-3,5,6,8-tetraaza-acenaphthylene-2-carboxylic acid (3,4-dimethoxy-phenyl)-amide]: the inhibition at 2 µM at EGFR was 51%; at c-Src kinase (human), -17%. Moreover, the inhibition at 1 µM on HER-2 is -14%.

For `Cc1ccc(-n2nc(C(C)(C)C)cc2N2C(=O)Nc3c(C(=O)Nc4ccc(CN5CCOCC5)cc4)sc4ncnc2c34)cc1` [Cpd 76, 5-(5-tert-butyl-2-p-tolyl-2H-pyrazol-3-yl)-4-oxo-4,5-dihydro-3H-1-thia-3,5,6,8-tetraaza-acenaphthylene-2-carboxylic acid (4-morpholin-4-ylmethyl-phenyl)-amide], the figures for the inhibition at 2 µM on EGFR and against c-Src kinase (human) were 7% and 43%, respectively. For the same molecule, the inhibition at 1 µM against HER-2 is -11%.

On to `COc1cc(N2C(=O)Nc3c(C(=O)Nc4ccc(OC)c(OC)c4)sc4ncnc2c34)ccc1Br` [Cpd 82, 5-(4-bromo-3-methoxy-phenyl)-4-oxo-4,5-dihydro-3H-1-thia-3,5,6,8-tetraaza-acenaphthylene-2-carboxylic acid (3,4-dimethoxy-phenyl)-amide], for which the inhibition at 2 µM on EGFR came to 30%; on c-Src kinase (human) it was 43%. Moreover, the pIC50 at HER-2 was below 5.00.

With `COc1cc(N2C(=O)Nc3c(C(=O)N(C)C)sc4ncnc2c34)ccc1Br` [Cpd 83, 5-(4-bromo-3-methoxy-phenyl)-4-oxo-4,5-dihydro-3H-1-thia-3,5,6,8-tetraaza-acenaphthylene-2-carboxylic acid dimethylamide], the inhibition at 2 µM on EGFR was -2%; at c-Src kinase (human), 44%. Further, the pIC50 on HER-2 is below 5.00.

In the case of `COc1cc(N2C(=O)Nc3c(C(=O)Nc4ccc(CN5CCN(C)CC5)cc4)sc4ncnc2c34)ccc1Br` [Cpd 85, 5-(4-bromo-3-methoxy-phenyl)-4-oxo-4,5-dihydro-3H-1-thia-3,5,6,8-tetraaza-acenaphthylene-2-carboxylic acid [4-(4-methyl-piperazin-1-ylmethyl)-phenyl]-amide], the inhibition at 2 µM at EGFR is 36%; against c-Src kinase (human) it was -17%. Also, the pIC50 on HER-2 was 5.36.

Regarding `COc1ccc(Cl)c(N2C(=O)Nc3c(C(=O)Nc4ccc(OCCN5CCCCC5)c(OC)c4)sc4ncnc2c34)c1` [Cpd 88, 5-(2-chloro-5-methoxy-phenyl)-4-oxo-4,5-dihydro-3H-1-thia-3,5,6,8-tetraaza-acenaphthylene-2-carboxylic acid [3-methoxy-4-(2-piperidin-1-yl-ethoxy)-phenyl]-amide], at c-Src kinase (human), the inhibition at 2 µM turned out to be 43%.

For the molecule `COc1ccc(NC(=O)c2sc3ncnc4c3c2NC(=O)N4c2ccc(Oc3ccccc3)cc2)cc1OC` [Cpd 99, 4-oxo-5-(4-phenoxy-phenyl)-4,5-dihydro-3H-1-thia-3,5,6,8-tetraaza-acenaphthylene-2-carboxylic acid (3,4-dimethoxy-phenyl)-amide], at EGFR, the pIC50 is 7.57. Moreover, the inhibition at 2 µM against c-Src kinase (human) is -9%. On HER-2, the inhibition at 1 µM is 60% and the pIC50 was 6.04.
